PubChem BioAssay (NCI)
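Method: 48-hour compound exposure of cells in 96-well plates, five concentrations, linear interpolation of endpoints. Here, GI50 denotes the concentration required for 50% inhibition of growth. TGI: concentration producing complete growth inhibition.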

Experiments:
Test in all cases: NCI anticancer screen, dose series, 48 h
SNB-19 CNS = system: SNB-19 CNS
OVCAR-3 ovarian = system: OVCAR-3 ovarian
OVCAR-5 ovarian = system: OVCAR-5 ovarian
MALME-3M melanoma = system: MALME-3M melanoma
HCT-116 colon = system: HCT-116 colon
RPMI-8226 leukemia = system: RPMI-8226 leukemia
K-562 leukemia = system: K-562 leukemia
LOX IMVI melanoma = system: LOX IMVI melanoma
ACHN renal = system: ACHN renal
A549 NSCLC = system: A549 NSCLC

Row | Structure (SMILES) | TGI (SNB-19 CNS) [µM] | TGI (OVCAR-3 ovarian) [µM] | TGI (OVCAR-5 ovarian) [µM] | TGI (MALME-3M melanoma) [µM] | TGI (HCT-116 colon) [µM] | TGI (RPMI-8226 leukemia) [µM] | TGI (K-562 leukemia) [µM] | TGI (LOX IMVI melanoma) [µM] | TGI (ACHN renal) [µM] | TGI (A549 NSCLC) [µM] | GI50 (SNB-19 CNS) [µM] | GI50 (OVCAR-3 ovarian) [µM] | GI50 (OVCAR-5 ovarian) [µM] | GI50 (MALME-3M melanoma) [µM] | GI50 (HCT-116 colon) [µM] | GI50 (RPMI-8226 leukemia) [µM] | GI50 (K-562 leukemia) [µM] | GI50 (LOX IMVI melanoma) [µM] | GI50 (ACHN renal) [µM] | GI50 (A549 NSCLC) [µM]
1 | Cc1ccc(N(C=O)c2c([N+](=O)[O-])cc([N+](=O)[O-])c3c2=[N+]([O-])CN=3)cc1 | > 100 | 73.6 | > 100 | 43.1 | 67.4 | 69.2 | 82.7 | 90.3 | 64 | > 100 | – | – | – | – | – | – | – | – | – | –
2 | COC(=O)[C@H](Cc1cn(C)cn1)NC(=O)[C@H](CC(=O)OCc1ccccc1)NC(=O)Nc1cc(C(F)(F)F)cc(C(F)(F)F)c1 | 28.5 | 6.25 | 34.2 | 10.4 | 40.7 | 17.5 | 15.7 | 8.9 | 24 | 25.9 | 13.8 | 2.5 | 17.2 | 3.28 | 12.5 | 4.24 | 4.15 | 2.96 | 10.4 | 11.6
3 | CN1CCN(CCCNC(=O)c2c3c(n4ccccc24)C(=O)c2ncccc2C3=O)CC1 | 6.09 | 3.53 | > 53.2 | 0.99 | 4.93 | > 24.4 | > 32.4 | 3.36 | 5.49 | 5.48 | 1.35 | 0.4 | 2.42 | 0.376 | 0.632 | 3.02 | 1.39 | 0.715 | 0.866 | 1.26
4 | Cn1ncc(C#N)c1-c1ccc2c(c1)CN([C@H](CN)Cc1cccc(F)c1)C2=O | > 55.3 | > 90.4 | > 100 | 11.3 | 28.7 | 18.3 | > 100 | > 100 | > 100 | > 100 | 1.15 | 10 | 18.6 | 1.33 | 12.9 | 2.34 | 27.4 | 20.3 | 13.6 | 5.34
5 | CCN(CC)CCNC(=O)c1cccc2c1-c1ccccc1C2=O | > 100 | > 100 | > 100 | > 100 | > 100 | > 100 | > 100 | > 100 | > 100 | > 100 | > 100 | > 100 | > 100 | > 100 | 55.9 | 66.3 | > 100 | > 100 | > 100 | > 100
6 | COC(=O)C1C(C(=O)O)C2(c3ccccc3)C(=O)C1(c1ccccc1)C(c1ccccc1)=C2c1ccccc1 (centres undefined) | 29.5 | 50.4 | 35.3 | 59.3 | 35.2 | 45.7 | > 100 | 89.7 | 88.1 | 39.1 | 11.7 | 19.7 | 19.3 | 26.8 | 19.6 | 15.7 | 21.8 | 27.8 | 25.8 | 19.8
7 | CC(C)(C)[Si](C)(C)OCC1OC(n2cnc3c(=O)[nH]cnc32)CC1O (centres undefined) | > 100 | > 100 | > 100 | > 100 | > 100 | > 100 | > 100 | > 100 | > 100 | > 100 | – | – | – | – | – | – | – | – | – | –
8 | N#Cc1c2ccccc2c(Cc2ccc3c(c2)OCCOCCOCCOCCOCCO3)c2ccccc12 | 24.5 | 16.4 | 30.1 | 20.3 | 21.3 | > 100 | > 100 | 22.6 | 21.7 | 16.7 | – | – | – | – | – | – | – | – | – | –
9 | O=C1/C(=C\c2ccc(F)cc2)CN(C(=O)c2ccccc2F)C/C1=C\c1ccc(F)cc1 | 3.55 | 3.11 | 4.04 | 4.09 | 0.571 | 0.817 | – | 0.957 | 3.6 | 8.75 | 1.58 | 1.67 | 1.88 | 2 | 0.228 | 0.137 | 0.414 | 0.28 | 1.61 | 2.59
10 | C=C1C(=O)O[C@H](c2ccoc2)C[C@@H]1[C@@]1(C)CCCC2(C)C(=O)OCC21 (some centres undefined) | > 100 | > 100 | > 100 | > 100 | > 100 | > 100 | > 100 | > 100 | > 100 | > 100 | – | – | – | – | – | – | – | – | – | –
11 | CCOC(=O)C1=C(C)NC(=O)NC1c1ccc(OC)cc1OC (centres undefined) | > 100 | > 100 | > 100 | > 100 | > 100 | > 100 | > 100 | > 100 | > 100 | > 100 | – | – | – | – | – | – | – | – | – | –
12 | COc1cc(OCc2ccccc2)c2c(CCC(=O)O)cc(=O)oc2c1 (tested in a mixture with another compound) | > 100 | > 100 | > 100 | > 100 | > 100 | > 100 | > 100 | > 100 | > 100 | > 100 | – | – | – | – | – | – | – | – | – | –
13 | CCc1nc(C)cn1C(=O)OCc1nc2nc(Cl)nc(N3CCOCC3)c2[nH]1 | 2.84 | 1.98 | 2.99 | 2.95 | 2.3 | 3.1 | > 100 | 2.33 | 2.09 | 4.36 | 1.43 | 0.636 | 1.44 | 1.56 | 0.364 | 0.696 | 0.703 | 1.02 | 0.854 | 1.83
14 | N#C/C(=C\c1c(O)cc(O)cc1O)C(N)=O | > 100 | > 100 | > 100 | > 100 | > 100 | > 100 | > 100 | > 100 | > 100 | > 100 | – | – | – | – | – | – | – | – | – | –
15 | O=C(/C=C/c1ccc(Cl)c(Cl)c1)c1ccccc1Cl | 25.1 | 23 | 30.4 | 30.5 | 9.95 | > 29.1 | 19.4 | 27.7 | 28.6 | 31.6 | – | – | – | – | – | – | – | – | – | –
